From ChEMBL document CHEMBL1153781, “Prediction of volume of distribution values in human using immobilized artificial membrane partitioning coefficients, the fraction of compound ionized and plasma protein binding data” (Eur J Med Chem, 2009)

Columns and labels:
Plasma = conditions: human
Description: Fraction unbound in human plasma

[1] = Dissociation constant, pKa of the compound; format: physicochemical
clinical = conditions: human, in vivo

Row | SMILES | fu (Plasma) | pKa [1] | Vd (clinical)
1 | CCOC(=O)C1(c2ccccc2)CCN(C)CC1 [MEPERIDINE] | 0.42 | 10.5 | –
2 | C=CC1=C(C(=O)O)N2C(=O)[C@@H](NC(=O)/C(=N\OCC(=O)O)c3csc(N)n3)[C@H]2SC1 [CEFIXIME] | 0.33 | 2.1 | –
3 | CC[C@H](C)C(=O)O[C@H]1C[C@H](O)C=C2C=C[C@H](C)[C@H](CC[C@@H](O)C[C@@H](O)CC(=O)O)[C@H]21 [PRAVASTATIN] | 0.55 | 4.7 | –
4 | O=C(O)c1cc(=O)c2c(OCC(O)COc3cccc4oc(C(=O)O)cc(=O)c34)cccc2o1 [CROMOLYN] | 0 | 1.9 | 0.32 L/kg
5 | CN1CCOC(c2ccccc2)c2ccccc2C1 (stereo unspecified) [NEFOPAM] | 0.27 | 9.3 | 7.23 L/kg
6 | Cc1ccccc1N1C(=O)c2cc(S(N)(=O)=O)c(Cl)cc2NC1C (stereo unspecified) [METOLAZONE] | – | 9.72 | 1.61 L/kg
7 | COC(=O)CCc1ccc(OCC(O)CNC(C)C)cc1 (stereo unspecified) [ESMOLOL] | 0.45 | […] | 1.9 L/kg
8 | COc1cccc(C2(O)CCCCC2CN(C)C)c1 (stereo unspecified) [TRAMADOL] | 0.96 | 8.3 | –
9 | C[C@H]1[C@H](NC(=O)/C(=N\OC(C)(C)C(=O)O)c2csc(N)n2)C(=O)N1S(=O)(=O)O [AZTREONAM] | – | 2.75 | –
10 | Nc1cc(N2CCCCC2)nc(N)[n+]1[O-] [MINOXIDIL] | 1 | 4.6 | 3 L/kg
11 | CCCOC(C(=O)OC1CCN(C)CC1)(c1ccccc1)c1ccccc1 [PROPIVERINE] | 0.075 | 6.65 | 1.9 L/kg
12 | CC1(C)S[C@@H]2[C@H](NC(=O)[C@H](N)c3ccc(O)cc3)C(=O)N2[C@H]1C(=O)O [AMOXICILLIN] | 0.82 | 2.4 | 0.85 L/kg
13 | CCn1cc(C(=O)O)c(=O)c2cc(F)c(N3CCNC(C)C3)c(F)c21 (stereo unspecified) [LOMEFLOXACIN] | 0.89 | 5.99 | 2.3 L/kg
14 | CCn1cc(C(=O)O)c(=O)c2cc(F)c(N3CCNCC3)cc21 [NORFLOXACIN] | 0.85 | 6.3 | 2.8 L/kg
15 | Cc1ccc(S(=O)(=O)NC(=O)NN2CC3CCCC3C2)cc1 (stereo unspecified) [GLICLAZIDE] | 0.09 | 5.98 | 0.36 L/kg
16 | CCN1CCN(C(=O)N[C@@H](C(=O)N[C@@H]2C(=O)N3C(C(=O)O)=C(CSc4nnnn4C)CS[C@H]23)c2ccc(O)cc2)C(=O)C1=O [CEFOPERAZONE] | – | 2.6 | –
17 | CO/N=C(\C(=O)N[C@@H]1C(=O)N2C(C(=O)O)=C(CSc3nc(=O)c(=O)[nH]n3C)CS[C@H]12)c1csc(N)n1 [CEFTRIAXONE] | 0.075 | 2.7 | –
18 | Nc1ncnc2c1ncn2CCOCP(=O)(O)O [ADEFOVIR] | 0.895 | 1.3 | –
19 | CCCC(C)C1(CC)C(=O)NC(=O)NC1=O (stereo unspecified) [PENTOBARBITAL] | 0.45 | 8.1 | 1 L/kg
20 | CO/N=C(\C(=O)N[C@@H]1C(=O)N2C(C(=O)O)=C(COC(C)=O)CS[C@H]12)c1csc(N)n1 [CEFOTAXIME] | 0.6 | 3.75 | 0.28 L/kg
21 | COc1c(N2CCNC(C)C2)c(F)cc2c(=O)c(C(=O)O)cn(C3CC3)c12 (stereo unspecified) [GATIFLOXACIN] | – | 6 | 1.75 L/kg
22 | Cc1nnc(SCC2=C(C(=O)O)N3C(=O)[C@@H](NC(=O)Cn4cnnn4)[C@H]3SC2)s1 [CEFAZOLIN] | – | 2.1 | –
23 | CCCCN1CCCCC1C(=O)Nc1c(C)cccc1C (stereo unspecified) [BUPIVACAINE] | 0.044 | 8.16 | 0.7 L/kg
24 | CCOC(=O)[C@H](CCc1ccccc1)N[C@@H](C)C(=O)N1CCC[C@H]1C(=O)O | 0.4 | – | 1.7 L/kg
25 | CC(=O)Oc1ccccc1C(=O)O [ASPIRIN] | 0.3 | – | 0.15 L/kg
26 | Nc1ccc(S(=O)(=O)Nc2ncccn2)cc1 [SULFADIAZINE] | 0.55 | – | 0.92 L/kg
27 | COCCOC(=O)C1=C(C)NC(C)=C(C(=O)OC(C)C)C1c1cccc([N+](=O)[O-])c1 (stereo unspecified) [NIMODIPINE] | 0.05 | – | 1.5 L/kg
28 | COc1ccc2c(c1)C(=O)N(CCc1ccc(S(=O)(=O)NC(=O)NC3CCCCC3)cc1)C(=O)C2(C)C [GLIQUIDONE] | 0.01 | 5 | 0.16 L/kg
29 | CCn1cc(C(=O)O)c(=O)c2cc(F)c(N3CCNCC3)nc21 [ENOXACIN] | 0.485 | 6.3 | 1.96 L/kg
30 | CCCNC(C)C(=O)Nc1ccccc1C (stereo unspecified) [PRILOCAINE] | 0.715 | 7.9 | –
